Measurements taken from PubChem BioAssay (NCI).
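Protocol summary: plate cells (96-well), add compound at 5 concentrations, incubate 48 h, interpolate endpoints linearly. At the GI50, growth is halved. TGI marks complete inhibition of growth.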

Legend:
Test in all cases: NCI anticancer screen, dose series, 48 h
OVCAR-4 ovarian = tested on: OVCAR-4 ovarian
RXF 393 renal = tested on: RXF 393 renal
UACC-62 melanoma = tested on: UACC-62 melanoma
SNB-75 CNS = tested on: SNB-75 CNS
HOP-92 NSCLC = tested on: HOP-92 NSCLC
HS 578T breast = tested on: HS 578T breast
PC-3 prostate = tested on: PC-3 prostate
BT-549 breast = tested on: BT-549 breast
DU-145 prostate = tested on: DU-145 prostate
MDA-MB-435 = tested on: MDA-MB-435

CN(N=O)C(=O)NC(CCCCNC(=O)OCc1ccccc1)C(=O)OCc1ccccc1 (centres undefined)
TGI (OVCAR-4 ovarian): > 100 µM
TGI (RXF 393 renal): 61.8 µM
TGI (UACC-62 melanoma): 33.1 µM
TGI (SNB-75 CNS): 36 µM
TGI (HOP-92 NSCLC): 54.2 µM

Cc1cc2c(cc1Cl)SC(=Nc1ccc(Cl)cc1)N(S(=O)(=O)c1ccc(Br)s1)S2(=O)=O
GI50 (HS 578T breast): 25.3 µM
TGI (HS 578T breast): 62.2 µM
GI50 (OVCAR-4 ovarian): 18.4 µM
TGI (OVCAR-4 ovarian): 66.3 µM
GI50 (PC-3 prostate): 12.5 µM
TGI (PC-3 prostate): 27.1 µM
GI50 (UACC-62 melanoma): 12 µM
TGI (UACC-62 melanoma): 25.3 µM
GI50 (BT-549 breast): 19.2 µM
TGI (BT-549 breast): 48.8 µM
GI50 (HOP-92 NSCLC): 12.1 µM
TGI (HOP-92 NSCLC): 46.1 µM
GI50 (DU-145 prostate): 13.3 µM
TGI (DU-145 prostate): 26.1 µM
GI50 (MDA-MB-435): 14.1 µM
TGI (MDA-MB-435): 31.3 µM

CN(c1ccccc1)c1nc(=[N+](C)C)ss1
TGI (OVCAR-4 ovarian): > 100 µM
TGI (RXF 393 renal): > 100 µM
TGI (UACC-62 melanoma): > 100 µM
TGI (SNB-75 CNS): > 100 µM
TGI (HOP-92 NSCLC): > 100 µM

O=NN(CC1(O)OCC(O)C(O)C1O)C(Cc1c[nH]c2ccccc12)C(=O)O (centres undefined)
TGI (RXF 393 renal): > 100 µM
TGI (UACC-62 melanoma): > 100 µM
TGI (SNB-75 CNS): > 100 µM
TGI (HOP-92 NSCLC): > 100 µM

CCN(CC)C(=O)c1cccc2c(OC)ccc(OC)c12
TGI (OVCAR-4 ovarian): > 100 µM
TGI (RXF 393 renal): > 100 µM
TGI (UACC-62 melanoma): > 100 µM
TGI (SNB-75 CNS): > 100 µM

CCC(=O)N1C(=S)SC[C@H]1C(=O)OC
TGI (OVCAR-4 ovarian): > 100 µM
TGI (RXF 393 renal): > 100 µM
TGI (UACC-62 melanoma): > 100 µM
TGI (SNB-75 CNS): > 100 µM
TGI (HOP-92 NSCLC): > 100 µM

c1ccc2[nH]c(-c3ccc(Nc4nc(N5CCCC5)nc5[nH]ncc45)cc3)nc2c1
GI50 (HS 578T breast): 1.21 µM
TGI (HS 578T breast): 4.26 µM
GI50 (OVCAR-4 ovarian): 1.06 µM
TGI (OVCAR-4 ovarian): 2.81 µM
GI50 (PC-3 prostate): 1.61 µM
TGI (PC-3 prostate): 4.71 µM
GI50 (RXF 393 renal): 0.814 µM
TGI (RXF 393 renal): 2.27 µM
GI50 (SNB-75 CNS): 1.28 µM
TGI (SNB-75 CNS): 2.76 µM
GI50 (BT-549 breast): 1.68 µM
TGI (BT-549 breast): 3.47 µM
GI50 (HOP-92 NSCLC): 1.14 µM
TGI (HOP-92 NSCLC): 2.75 µM
GI50 (DU-145 prostate): 1.13 µM
TGI (DU-145 prostate): 2.77 µM
GI50 (MDA-MB-435): 1.48 µM
TGI (MDA-MB-435): 3.08 µM

CC(C)CC(NC(=O)C(O)C(N)Cc1ccccc1)C(=O)O (centres undefined)
TGI (HS 578T breast): > 100 µM
TGI (OVCAR-4 ovarian): > 100 µM
TGI (PC-3 prostate): > 100 µM
TGI (RXF 393 renal): > 100 µM
TGI (UACC-62 melanoma): > 100 µM
TGI (SNB-75 CNS): > 100 µM
TGI (HOP-92 NSCLC): > 100 µM
TGI (DU-145 prostate): > 100 µM
TGI (MDA-MB-435): > 100 µM

O=C1C2C3SC(c4cc5ccccc5cc43)C2C(=O)N1c1ccccc1 (centres undefined)
TGI (OVCAR-4 ovarian): > 100 µM
TGI (RXF 393 renal): 94.3 µM
TGI (UACC-62 melanoma): > 100 µM
TGI (SNB-75 CNS): 45.4 µM
TGI (HOP-92 NSCLC): > 100 µM

CCN(CC)CC(C(=O)Nc1c(C)cccc1C)/C(C)=N\NC(=S)NN (centres undefined)
TGI (RXF 393 renal): > 100 µM
TGI (UACC-62 melanoma): > 100 µM
TGI (SNB-75 CNS): > 100 µM
TGI (HOP-92 NSCLC): > 100 µM

N#Cc1cnc2ccc(NCc3cnc[nH]3)cc2c1Nc1ccc(F)c(Cl)c1
GI50 (HS 578T breast): 4.79 µM
TGI (HS 578T breast): > 100 µM
GI50 (OVCAR-4 ovarian): 2.44 µM
TGI (OVCAR-4 ovarian): > 100 µM
GI50 (RXF 393 renal): 7.03 µM
TGI (RXF 393 renal): > 100 µM
GI50 (UACC-62 melanoma): 13.9 µM
TGI (UACC-62 melanoma): 75 µM
GI50 (SNB-75 CNS): 11.1 µM
TGI (SNB-75 CNS): 95.8 µM
GI50 (BT-549 breast): > 100 µM
TGI (BT-549 breast): > 100 µM
GI50 (HOP-92 NSCLC): 1.08 µM
TGI (HOP-92 NSCLC): > 100 µM
GI50 (DU-145 prostate): 2.27 µM
TGI (DU-145 prostate): > 100 µM
GI50 (MDA-MB-435): 14.7 µM
TGI (MDA-MB-435): 88.5 µM

Clc1ccc(NCNC2Nc3ccccc3N2)cc1Cl
TGI (HS 578T breast): > 100 µM
TGI (PC-3 prostate): > 100 µM
TGI (RXF 393 renal): > 100 µM
TGI (UACC-62 melanoma): > 100 µM
TGI (SNB-75 CNS): > 100 µM
TGI (HOP-92 NSCLC): > 100 µM
TGI (DU-145 prostate): > 100 µM
TGI (MDA-MB-435): 93.2 µM

O=C(c1ccccc1)c1nc2ccc(Cl)cc2cc1C(Br)Br
TGI (HS 578T breast): 0.59 µM
TGI (OVCAR-4 ovarian): 1.41 µM
TGI (PC-3 prostate): 0.744 µM
TGI (RXF 393 renal): 0.361 µM
TGI (UACC-62 melanoma): 2.06 µM
TGI (SNB-75 CNS): 1.41 µM
TGI (BT-549 breast): 1.12 µM
TGI (DU-145 prostate): 1.97 µM
TGI (MDA-MB-435): 1.14 µM

COc1ccc(C(O)C(c2ccc(OCc3ccccc3)cc2)c2ccc(OCc3ccccc3)cc2)cc1 (centres undefined)
TGI (OVCAR-4 ovarian): > 100 µM
TGI (RXF 393 renal): > 100 µM
TGI (UACC-62 melanoma): > 100 µM
TGI (SNB-75 CNS): > 100 µM
TGI (HOP-92 NSCLC): > 100 µM

[O-]c1ccccc1C=NCCN=Cc1ccccc1[O-].[O]=[U+2]=[O]
GI50 (OVCAR-4 ovarian): 19 µM
TGI (OVCAR-4 ovarian): 64.1 µM
GI50 (RXF 393 renal): 24.1 µM
TGI (RXF 393 renal): 48.5 µM
GI50 (UACC-62 melanoma): 37.4 µM
TGI (UACC-62 melanoma): > 74.3 µM
GI50 (SNB-75 CNS): 22.9 µM
TGI (SNB-75 CNS): 70.2 µM
GI50 (HOP-92 NSCLC): 22.6 µM
TGI (HOP-92 NSCLC): 48.3 µM

Cc1cc(C)c2c(c1)CSCc1cc(C)cc(C)c1-2
TGI (OVCAR-4 ovarian): > 100 µM
TGI (RXF 393 renal): 65.3 µM
TGI (UACC-62 melanoma): > 100 µM
TGI (SNB-75 CNS): > 100 µM

O=C1/C(=C/c2cc(O)c(O)c(O)c2)Oc2cc(O)cc(OC3OC(CO)C(O)C(O)C3O)c21 (centres undefined)
TGI (OVCAR-4 ovarian): 6.49 µM
TGI (UACC-62 melanoma): 38.8 µM
TGI (SNB-75 CNS): > 100 µM
TGI (HOP-92 NSCLC): 38.7 µM

CC1COS(=O)N1c1ccccc1 (centres undefined)
TGI (OVCAR-4 ovarian): > 100 µM
TGI (RXF 393 renal): > 100 µM
TGI (UACC-62 melanoma): > 100 µM
TGI (SNB-75 CNS): > 100 µM
TGI (HOP-92 NSCLC): > 100 µM

COc1cccc2c1C(=O)c1c(O)c3c(c(O)c1C2=O)C[C@@](O)(/C(C)=N/NC(=O)c1cccc([N+](=O)[O-])c1)C[C@@H]3OC1CC(N)C(O)C(C)O1 (some centres undefined)
GI50 (HS 578T breast): 0.561 µM
TGI (HS 578T breast): 5.5 µM
GI50 (OVCAR-4 ovarian): 0.65 µM
TGI (OVCAR-4 ovarian): 11.3 µM
GI50 (PC-3 prostate): 0.616 µM
TGI (PC-3 prostate): 8.74 µM
GI50 (RXF 393 renal): 0.494 µM
TGI (RXF 393 renal): 2.21 µM
GI50 (UACC-62 melanoma): 0.199 µM
TGI (UACC-62 melanoma): 1.5 µM
GI50 (SNB-75 CNS): 0.22 µM
TGI (SNB-75 CNS): 1.5 µM
GI50 (BT-549 breast): 0.714 µM
TGI (BT-549 breast): 4.43 µM
GI50 (HOP-92 NSCLC): 0.201 µM
TGI (HOP-92 NSCLC): 4.71 µM
GI50 (DU-145 prostate): 0.272 µM
TGI (DU-145 prostate): 1.81 µM

O=[N+]([O-])c1ccc(Cl)c(C2CC(c3cccc4ccccc34)=Nc3ccccc3S2=O)c1 (centres undefined)
TGI (OVCAR-4 ovarian): > 84.2 µM
TGI (RXF 393 renal): 21.1 µM
TGI (UACC-62 melanoma): 40.8 µM
TGI (SNB-75 CNS): > 100 µM
TGI (HOP-92 NSCLC): 22.8 µM

O=C1c2ccccc2C(=O)N1C/C=N/NS(=O)(=O)c1cccc([N+](=O)[O-])c1
TGI (OVCAR-4 ovarian): > 100 µM
TGI (RXF 393 renal): > 100 µM
TGI (UACC-62 melanoma): > 100 µM
TGI (SNB-75 CNS): > 100 µM

O=S(=O)(c1ccccc1)N1CCC1c1ccccc1 (centres undefined)
TGI (OVCAR-4 ovarian): > 100 µM
TGI (RXF 393 renal): > 100 µM
TGI (UACC-62 melanoma): > 100 µM
TGI (SNB-75 CNS): > 100 µM
TGI (HOP-92 NSCLC): > 100 µM

CCOc1ccc2c(c1)[n+]([O-])c(C(N)=O)c(N)[n+]2[O-]
TGI (OVCAR-4 ovarian): > 100 µM
TGI (RXF 393 renal): > 100 µM
TGI (SNB-75 CNS): > 100 µM
TGI (HOP-92 NSCLC): > 100 µM

CSC(=Nc1ccc([N+](=O)[O-])cc1C#N)NC(=O)c1ccccc1
TGI (OVCAR-4 ovarian): > 100 µM
TGI (RXF 393 renal): > 100 µM
TGI (UACC-62 melanoma): > 100 µM
TGI (SNB-75 CNS): > 100 µM
TGI (HOP-92 NSCLC): > 100 µM

CC1=NC2(C(=O)O)C3(C(=O)O)N=C(C)OC3(C(F)(F)F)C2(C(F)(F)F)O1 (centres undefined)
TGI (OVCAR-4 ovarian): > 100 µM
TGI (RXF 393 renal): > 100 µM
TGI (UACC-62 melanoma): > 100 µM
TGI (SNB-75 CNS): > 100 µM
TGI (HOP-92 NSCLC): > 100 µM
